Data reported in patent US20250002846A1, “METHOD FOR CONSTRUCTION OF INNER EAR ORGANOID” (INDUSTRY FOUNDATION OF CHONNAM NATIONAL UNIVERSITY, priority 2022, published 2025).

How the values were obtained:
[1] = tested on: M-IEO-derived hair cell-like cells; test: Patch clamp of hair cell-like cells from microhole chip inner ear organoids, with or without cisplatin; type: cell-based, mouse; details: 68 pA−20 pA at 60 mV (so in the source)
Procedure: (§1) A 10 mV nominal increment was made at the holding potential of −84 mV covering the range of −124 to +54 mV for a duration of […], before returning to a constant potential of −44 mV (tail current, 50 ms). The bath solution was prepared using L-15 media (Gibco) and the pipette solution was prepared using 150 mM KCl, 5 mM HEPES, 0.1 mM CaCl2, 5 mM EGTA, 3.5 mM Mg ATP, pH 7.3 (KOH), and Osmolality 288 mmol/kg. To obtain damaged IEO, IEO was treated with […] of cisplatin on day 30 for 48 hours (100 mg cisplatin/0.33 mL (D. W) a 3 μL cisplatin +20 mL medium). To apply the IEO for patch clamp, the IEO was treated with trypsin for 5 minutes and the detached cells were detected with a patch pipette (n=4). Whole cells of IEO-derived hair cell-like cells were subjected to close-seal technique, in order to compare the electrophysiology of IEOS formed in microhole chips (hereinafter “M-IEO”) and IEOs formed in U well plates (hereinafter “U-IEO”) using patch clamp assays (FIG. 5A). In the 3D structure of the IEO, cells were isolated using single cell trypsinization. First, the morphology of mouse organs of Corti hair cells, mESC (R1/E), and IEO-derived hair cell-like cells was confirmed (FIG. 5B). […]

[2] = tested on: U-IEO-derived hair cell-like cells; test: Patch clamp of hair cell-like cells from U well plate inner ear organoids, with or without cisplatin; type: cell-based, mouse
Procedure: as §1

Structure (SMILES): N.N.[Cl][Pt][Cl] [cisplatin]
- loss of current, without versus with cisplatin [1]: 48 pA
- electrophysiology after culture with cisplatin ([2]; 3-day culture with or without cisplatin): significantly reduced electrophysiology
- loss of current, without versus with cisplatin ([2]; U-IEO, 138 pA−28 pA (so in the source)): 110 pA
